Source: article PMC6007963, “An ^18F-Labeled Poly(ADP-ribose) Polymerase Positron Emission Tomography Imaging Agent” (Journal of Medicinal Chemistry, 2018)
Where two headings read alike, the source gives them in different places.

Tests used:
human serum albumin = human serum albumin (Homo sapiens, UniProt P02768); assay: percentage plasma protein binding by human serum albumin coated HPLC column; assay type: in vitro ADME; conditions: for fraction unbound: human, read-out: %PPB (converted)
[1] = lipophilicity (log Poct) by C-18 reverse-phase HPLC; assay type: physicochemical; conditions: C-18 reverse-phase HPLC column
PARP-1 = PARP-1 (Homo sapiens, UniProt P09874); assay: cell-free PARP-1 IC50 assay (colorimetric dose-response)
[2] = intrinsic clearance in human liver microsomes; assay type: in vitro ADME; conditions: for microsomal CLint: human, liver microsomes
Text: (§1) However, these were still within the optimal range for a nuclear imaging agent. […] Collectively, the optimal physiochemical properties and low nanomolar PARP cell-free and cellular IC50 values supported further investigation of 20 as a potential radiotracer for PARP. In the body, radiotracers can be exposed to a number of metabolic pathways, including blood plasma hydrolysis and liver functionalization or conjugation reactions that can have a significant effect on the kinetic properties of the tracer and, subsequently its usefulness in nuclear imaging. With this in mind, the in vitro plasma and liver microsome stability of lead candidate 20 were established by incubating the compound in mouse plasma proteins and human liver microsome enzymes, respectively, using previously described methodologies.[19]

mouse plasma stability = assay type: in vitro ADME
Text: as §1

[3] = parameters: method as in PMID 26493053; conditions: at 120 min; cited from earlier work
[4] = molecular target: T1, PARP in U87MG-Luc2 human glioblastoma xenografts (Homo sapiens, UniProt P09874); assay: ex vivo biodistribution with preblockade by nonradioactive 1; assay type: in vivo, mouse
T1 construct: from tissue; host or cells: subcutaneous U87MG-Luc2 human glioblastoma xenograft in female CD1 nude mice
Method: To establish the specificity of [^18F]20 for PARP in bone and tumor tissue, further biodistribution studies were performed on subcutaneous U87MG-Luc2 glioblastoma bearing mice that had PARP binding sites blocked by pretreatment with nonradioactive compound 1 at a dose of 50 mg/kg 20 min prior to [^18F]20 administration. […] This supports the earlier proposed possibility of in vivo [^18F]20 defluorination, leading to free radiofluoride accumulation in the bone.
(§2) U87MG-Luc2 glioblastoma cell culture and implantation procedures were performed as reported previously.[19] Briefly, U87MG-Luc2 cells were purchased commercially from ATCC and cultured in minimum essential media that has been supplemented with 10% w/v fetal calf serum and 2 mM L-glutamine at 37 °C and 5% v/v CO2. Unconscious female CD1 nude mice (6–11 week old; purchased from Charles River Laboratories) had 5 × 10^6 U87MG-Luc2 cells injected subcutaneously into the right flank. The resulting tumor xenografts were measured and monitored visually every 3 days, and tumor-bearing animals were used for in vivo studies 28–30 days post-implantation.
(§3) Subcutaneous tumor bearing mice were administered 1.8–2.6 MBq of [^18F]20 in 0.11–0.21 mL of 5% v/v DMSO in 0.9% saline via bolus tail-vein injections. The remainder of the experiment was conducted as described previously.[19]

[5] = tested on: U87MG-Luc2 human glioblastoma tumor xenografts; assay: ex vivo biodistribution in subcutaneous U87MG-Luc2 glioblastoma bearing nude mice; parameters: species or system mouse
Method: Following successful optimization of the radiochemistry, the behavior of [^18F]20 was investigated in vivo in mice bearing subcutaneous U87MG-Luc2 human glioblastoma tumor xenografts using ex vivo biodistribution and PET–MR imaging techniques. Ex vivo biodistribution of [^18F]20 was established at 30, 60, and 120 min after intravenous radiotracer administration, and PET data were acquired by performing a 45 min dynamic scan. […] This is in contrast to observations made by Carney et al., who reported <2%ID/g of bone of [^18F]8 at 120 min.[34] The high bone uptake seen with [^18F]20 could be explained by in vivo defluorination and subsequent radiofluoride accumulation in bone tissue.[35] Despite this, apparent radiotracer tumor uptake was identified in both biodistribution and PET–MR imaging experiments (Figures 3a,c), whereas in the case of the former, the mean ratio of %ID/g of glioblastoma tumor to muscle increased from 1.9 ± 0.5 (n = 4) to 3.6 ± 0.5 (n = 4) between the 30 and 120 min time points.
as §2, §3

[6] = experiment 1, read-out: Clint, experiment 1
[7] = experiment 2, read-out: Clint, experiment 2

Sequence of PARP-1 (P09874 whole entry, species assumed): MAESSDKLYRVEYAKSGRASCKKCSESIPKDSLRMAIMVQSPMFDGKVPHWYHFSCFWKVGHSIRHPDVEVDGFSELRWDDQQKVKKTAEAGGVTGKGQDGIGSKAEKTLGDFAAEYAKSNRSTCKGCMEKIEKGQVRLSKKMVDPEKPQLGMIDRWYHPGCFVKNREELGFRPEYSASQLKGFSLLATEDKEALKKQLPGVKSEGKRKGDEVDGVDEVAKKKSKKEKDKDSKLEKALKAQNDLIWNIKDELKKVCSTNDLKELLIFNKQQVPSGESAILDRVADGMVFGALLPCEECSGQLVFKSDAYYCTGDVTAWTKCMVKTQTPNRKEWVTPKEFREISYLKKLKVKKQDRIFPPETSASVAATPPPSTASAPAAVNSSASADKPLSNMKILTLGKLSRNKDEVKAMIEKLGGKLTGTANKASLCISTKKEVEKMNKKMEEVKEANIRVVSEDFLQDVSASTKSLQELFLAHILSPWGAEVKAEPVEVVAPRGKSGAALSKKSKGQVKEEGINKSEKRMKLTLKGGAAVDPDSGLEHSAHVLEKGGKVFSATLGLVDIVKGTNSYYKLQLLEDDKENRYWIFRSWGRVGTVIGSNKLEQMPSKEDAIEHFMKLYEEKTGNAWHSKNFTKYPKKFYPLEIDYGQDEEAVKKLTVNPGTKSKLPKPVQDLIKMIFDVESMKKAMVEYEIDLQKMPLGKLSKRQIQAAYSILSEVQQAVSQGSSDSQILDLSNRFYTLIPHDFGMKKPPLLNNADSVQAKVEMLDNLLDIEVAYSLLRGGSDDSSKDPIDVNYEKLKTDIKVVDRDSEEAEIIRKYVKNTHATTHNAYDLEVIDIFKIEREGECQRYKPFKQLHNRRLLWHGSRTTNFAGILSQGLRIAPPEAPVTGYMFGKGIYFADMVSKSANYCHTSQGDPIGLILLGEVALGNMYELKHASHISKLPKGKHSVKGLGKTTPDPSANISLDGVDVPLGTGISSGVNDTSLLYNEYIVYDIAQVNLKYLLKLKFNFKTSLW
T1 sequence (P09874 whole entry): as the sequence (P09874 whole entry, species assumed) above
Sequence of human serum albumin (P02768 25-609): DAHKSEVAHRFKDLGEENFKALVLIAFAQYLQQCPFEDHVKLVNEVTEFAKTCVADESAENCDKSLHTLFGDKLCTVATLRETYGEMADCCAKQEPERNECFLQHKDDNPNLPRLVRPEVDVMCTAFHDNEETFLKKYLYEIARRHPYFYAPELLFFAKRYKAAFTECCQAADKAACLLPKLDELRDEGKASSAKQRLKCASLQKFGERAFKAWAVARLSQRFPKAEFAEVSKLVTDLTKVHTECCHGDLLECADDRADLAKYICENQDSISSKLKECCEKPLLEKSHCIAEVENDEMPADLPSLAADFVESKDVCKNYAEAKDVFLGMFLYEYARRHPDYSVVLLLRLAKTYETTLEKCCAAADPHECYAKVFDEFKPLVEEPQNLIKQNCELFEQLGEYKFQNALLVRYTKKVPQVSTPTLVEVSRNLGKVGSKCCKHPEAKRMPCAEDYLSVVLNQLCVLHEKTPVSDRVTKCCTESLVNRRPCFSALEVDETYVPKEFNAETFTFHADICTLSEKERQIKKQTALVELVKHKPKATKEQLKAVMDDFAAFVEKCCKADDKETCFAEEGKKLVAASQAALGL

SMILES	fraction unbound (human serum albumin)	chromatographic logP [1]	IC50 (PARP-1) [nM]	other results
O=C(c1ccccc1F)N1CCN(C(=O)c2cc(Cc3n[nH]c(=O)c4ccccc34)ccc2F)CC1 [compound 9, 4-[3′-[4″-(2‴-Fluorobenzoyl)piperazine-1″-carbonyl]-4′-fluorobenzyl]-2H-phthalazin-1-one]	0.136	2.46	3.6	
O=C(Cc1ccc(F)cc1)N1CCN(C(=O)c2cc(Cc3n[nH]c(=O)c4ccccc34)ccc2F)CC1 [compound 11, 4-[3′-[4″-[(4‴-Fluorophenyl)acetyl]piperazine-1″-carbonyl]-4′-fluorobenzyl]-2H-phthalazin-1-one]	0.101	2.67	1.3	
O=C(c1ccc(F)cc1)N1CCN(C(=O)c2cc(Cc3n[nH]c(=O)c4ccccc34)ccc2F)CC1 [compound 8, 4-[3′-[4″-(4‴-Fluorobenzoyl)piperazine-1″-carbonyl]-4′-fluorobenzyl]-2H-phthalazin-1-one]	0.141	2.51		
O=C(c1ccc(CF)cc1)N1CCN(C(=O)c2cc(Cc3n[nH]c(=O)c4ccccc34)ccc2F)CC1 [compound 20]	0.107	2.51	2	intrinsic clearance fold greater in comparison to 1 ([2]; compared with 1): approximately 3 fold; microsomal CLint [2, 6]: 74 µL/min/mg; microsomal CLint [2, 7]: 90 µL/min/mg; stability in mouse plasma (mouse plasma stability; 20 h incubation in mouse plasma): negligible decomposition; plasma stability, 20 h (mouse plasma stability; mean percentage of parent compound remaining after 20 h incubation in mouse plasma): 95%; plasma stability, 0 h (mouse plasma stability; mean percentage of parent compound remaining, mouse plasma, 0 h): 93%; cell-free IC50 fold less than that of 1 (PARP-1; compared with 1): 6 fold; cell-free IC50 fold less than that of 8 (PARP-1; compared with 8): 3 fold
O=C(c1cc(Cc2n[nH]c(=O)c3ccccc23)ccc1F)N1CCN(Cc2ccc(F)cc2)CC1 [compound 13, 4-[3′-[4″-(4‴-Fluorobenzyl)piperazine-1″-carbonyl]-4′-fluorobenzyl]-2H-phthalazin-1-one]	0.053	3.14	11.2	
O=C(CCC(=O)N1CCN(C(=O)c2cc(Cc3n[nH]c(=O)c4ccccc34)ccc2F)CC1)c1ccc(F)cc1 [compound 12, 4-[3′-[4′′′′′-[(4‴-Fluorophenyl)butane-1′′′′,4′′′′-dione]-piperazine-1‴-carbonyl]4″-fluorobenzyl]-2H-phthalazin-1-one]	0.094	2.81	4.1	
O=C(c1cc(Cc2n[nH]c(=O)c3ccccc23)ccc1F)N1CCN(C(=O)C2CC2)CC1 [compound 1, olaparib, reference compound]		1.95		microsomal CLint [2, 6]: 23 µL/min/mg; microsomal CLint [2, 7]: 34 µL/min/mg; %PPB (human serum albumin): 75.9%
Cc1cc(F)ccc1C(=O)N1CCN(C(=O)c2cc(Cc3n[nH]c(=O)c4ccccc34)ccc2F)CC1 [compound 10, 4-[3′-[4″-(4‴-Fluoro-2‴-methylbenzoyl)piperazine-1″-carbonyl]-4′-fluorobenzyl]-2H-phthalazin-1-one]	0.139	2.66	2.9	
O=C(c1ccc([18F])cc1)N1CCN(C(=O)c2cc(Cc3n[nH]c(=O)c4ccccc34)ccc2F)CC1 [[^18F]8]				%ID/g of bone [3]: < 2 %ID/g
O=C(c1ccc(C[18F])cc1)N1CCN(C(=O)c2cc(Cc3n[nH]c(=O)c4ccccc34)ccc2F)CC1 [[^18F]20]				ratio of %ID/g of tumor to muscle, preblockade using 1 ([4]; 60 min after [18F]20 administration, 50 mg/kg of 1 given 20 min prior, P < 0.05 vs vehicle): 1.07 ± 0.15; ratio of %ID/g of tumor to muscle, vehicle-pretreated mice ([4]; 60 min after [18F]20 administration, vehicle pretreatment): 1.79 ± 0.39; uptake in bone tissue in presence of excess nonradioactive 1 ([4]; 60 min after radioligand administration, 50 mg/kg of 1 pretreatment): not influenced; mean ratio of %ID/g of glioblastoma tumor to muscle, 30 min ([5]; 30 min after intravenous injection, n = 4): 1.9 ± 0.5; mean ratio of %ID/g of glioblastoma tumor to muscle, 120 min ([5]; 120 min after intravenous injection, n = 4): 3.6 ± 0.5; mean percentage of injected dose per gram (%ID/g) of femur tissue ([5]; across 30, 60 and 120 min after intravenous tracer administration): > 8.5%
